ChEMBL document CHEMBL6071182, “Design, Biological Characterization, and Discovery of Novel Cyclohexenyl Derivatives as Kinesin KIF18A Inhibitors for the Treatment of Ovarian Cancer” (ACS Med Chem Lett, 2024)

What was measured:
cells = conditions: Homo sapiens, OVCAR-3, 96 h
Description: Antiproliferative activity against KIF18A siRNA sensitive human OVCAR-3 cells assessed as decrease in nuclei number measured after 4 days incubation by Hoechst 33342 DNA dye based nuclear count assay (NCA)

[1] = AUC in Balb/c mouse at 30 mg/kg, po; format: ADME, organism-based; conditions: in vivo
NCI-N87 = assay: Antiproliferative activity against human NCI-N87 cells assessed as chemiluminescence measured after 4 days incubation by Celltiter Glo assay; conditions: NCI-N87, 96 h
[2] = Cmax in Balb/c mouse at 30 mg/kg, po; format: ADME, organism-based; conditions: in vivo
BXPC-3 = assay: Antiproliferative activity against human BxPC-3 cells assessed as chemiluminescence measured after 4 days incubation by Celltiter Glo assay; conditions: BXPC-3, 96 h
NUGC-3 = assay: Antiproliferative activity against human NUGC-3 cells assessed as chemiluminescence measured after 4 days incubation by Celltiter Glo assay; conditions: NUGC-3, 96 h
[3] = Half life in Balb/c mouse at 30 mg/kg, po; format: ADME, organism-based; conditions: in vivo
[4] = biological target: T1, Kinesin-like protein KIF18A (Homo sapiens, UniProt Q8NI77); assay: Inhibition of human recombinant KIF18A (1 to 436) by ADP-Glo motor assay
T1 sequence (Q8NI77 whole entry): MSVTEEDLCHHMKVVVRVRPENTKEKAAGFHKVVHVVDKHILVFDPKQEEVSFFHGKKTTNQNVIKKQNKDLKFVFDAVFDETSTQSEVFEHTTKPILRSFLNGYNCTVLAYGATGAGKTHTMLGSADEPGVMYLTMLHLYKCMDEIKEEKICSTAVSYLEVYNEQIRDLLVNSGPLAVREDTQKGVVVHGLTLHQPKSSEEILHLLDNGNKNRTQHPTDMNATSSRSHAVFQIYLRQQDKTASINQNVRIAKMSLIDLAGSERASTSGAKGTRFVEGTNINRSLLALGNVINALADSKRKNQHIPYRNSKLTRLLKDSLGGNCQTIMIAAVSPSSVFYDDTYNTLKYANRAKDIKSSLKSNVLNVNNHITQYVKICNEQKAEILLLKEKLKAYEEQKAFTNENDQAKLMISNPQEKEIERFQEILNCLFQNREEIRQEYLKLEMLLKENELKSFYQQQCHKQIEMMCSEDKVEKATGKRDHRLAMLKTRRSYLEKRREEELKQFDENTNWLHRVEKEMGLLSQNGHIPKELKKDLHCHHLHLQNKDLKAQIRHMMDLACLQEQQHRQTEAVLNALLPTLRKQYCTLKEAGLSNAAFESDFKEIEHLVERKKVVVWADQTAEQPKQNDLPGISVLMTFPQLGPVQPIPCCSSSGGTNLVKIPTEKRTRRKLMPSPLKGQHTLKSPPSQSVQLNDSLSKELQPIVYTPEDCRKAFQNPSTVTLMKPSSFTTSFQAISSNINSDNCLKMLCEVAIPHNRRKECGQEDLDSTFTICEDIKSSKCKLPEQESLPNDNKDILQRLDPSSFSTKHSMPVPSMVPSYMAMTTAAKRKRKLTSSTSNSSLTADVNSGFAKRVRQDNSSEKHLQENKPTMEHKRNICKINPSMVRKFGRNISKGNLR

[5] = Cmax in Sprague-Dawley rat at 2 mg/kg, po and 1 mg/kg, iv; format: ADME, organism-based; conditions: in vivo
[6] = Half life in Sprague-Dawley rat at 2 mg/kg, po and 1 mg/kg, iv; format: ADME, organism-based; conditions: in vivo
[7] = biological target: T2, Kinesin-like protein KIF11 (Homo sapiens, UniProt P52732); assay: Inhibition of EG5 (unknown origin) assessed as luminescence measured after 135 mins by ADP-Glo motor assay
T2 sequence (P52732 whole entry): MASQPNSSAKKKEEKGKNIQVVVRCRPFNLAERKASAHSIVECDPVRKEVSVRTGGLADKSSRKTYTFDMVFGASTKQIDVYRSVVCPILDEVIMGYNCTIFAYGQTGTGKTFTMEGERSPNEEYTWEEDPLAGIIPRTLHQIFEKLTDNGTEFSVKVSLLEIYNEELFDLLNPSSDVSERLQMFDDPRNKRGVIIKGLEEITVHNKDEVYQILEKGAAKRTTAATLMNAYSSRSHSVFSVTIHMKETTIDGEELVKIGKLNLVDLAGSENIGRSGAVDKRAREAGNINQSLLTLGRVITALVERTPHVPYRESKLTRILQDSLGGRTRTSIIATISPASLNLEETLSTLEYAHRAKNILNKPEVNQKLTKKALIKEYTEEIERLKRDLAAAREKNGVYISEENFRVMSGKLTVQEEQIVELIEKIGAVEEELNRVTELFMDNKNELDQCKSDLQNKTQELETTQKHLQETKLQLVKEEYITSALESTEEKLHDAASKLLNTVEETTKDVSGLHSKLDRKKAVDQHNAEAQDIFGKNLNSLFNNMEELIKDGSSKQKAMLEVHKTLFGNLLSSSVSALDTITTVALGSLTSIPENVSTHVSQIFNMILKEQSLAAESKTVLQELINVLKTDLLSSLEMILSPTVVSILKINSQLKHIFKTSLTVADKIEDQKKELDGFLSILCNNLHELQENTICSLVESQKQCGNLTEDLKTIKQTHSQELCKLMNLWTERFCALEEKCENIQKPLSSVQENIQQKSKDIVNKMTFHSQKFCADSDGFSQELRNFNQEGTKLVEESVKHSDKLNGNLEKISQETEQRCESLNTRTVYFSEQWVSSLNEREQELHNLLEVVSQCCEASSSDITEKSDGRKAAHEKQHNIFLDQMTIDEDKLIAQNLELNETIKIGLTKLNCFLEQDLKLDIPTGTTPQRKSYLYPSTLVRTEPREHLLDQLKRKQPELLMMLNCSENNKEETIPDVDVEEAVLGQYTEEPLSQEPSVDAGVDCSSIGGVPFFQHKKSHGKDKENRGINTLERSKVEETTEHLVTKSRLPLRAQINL

[8] = AUClast in Sprague-Dawley rat at 2 mg/kg, po and 1 mg/kg, iv; format: ADME, organism-based; conditions: in vivo
[9] = Oral bioavailability in Sprague-Dawley rat at 2 mg/kg; format: ADME, organism-based; conditions: in vivo
[10] = biological target: T1, Kinesin-like protein KIF18A; assay: Inhibition of human recombinant KIF18A (1 to 374) assessed as luminescence measured after 70 mins by ADP-Glo motor assay

Compound: Cc1cc(NC(=O)c2ccc(NS(=O)(=O)CCO)cc2C2=CCN(C)CC2)nc(N2CCC(F)(F)CC2)n1
- EC50 (cells): > 10000 nM

Compound: Cc1cc(NC(=O)c2ccc(NS(=O)(=O)CCO)cc2N2C3CCCC2CC3)nc(N2CCC(F)(F)CC2)n1
- EC50 (cells): 665 nM

Compound: Cc1cc(NC(=O)c2ccc(NS(=O)(=O)CCO)cc2N2CCC3(CC2)CC3)nc(N2CCC(F)(F)CC2)n1 [AMG-650]
- EC50 (cells): 72.7 nM
- AUC [1]: 110000 ng·h/mL
- IC50 (NCI-N87): 7490 nM
- Cmax [2]: 7040 ng/mL
- IC50 (BXPC-3): 7450 nM
- IC50 (NUGC-3): 111 nM
- half-life [3]: 7.98 h

Compound: Cc1cc(NC(=O)c2ccc(NS(=O)(=O)CCO)cc2N2CC3CC3C2)nc(N2CCC(F)(F)CC2)n1 (configuration not stated)
- EC50 (cells): 2090 nM

Compound: Cc1cc(NC(=O)c2ccc(NS(=O)(=O)CCO)cc2C2=CCC3(CC2)CC3)nc(C2CCC(F)(F)CC2)n1
- EC50 (cells): 186 nM

Compound: Cc1cc(NC(=O)c2ccc(NS(=O)(=O)CCO)cc2N2C3CCC2CC2(CC2)C3)nc(N2CCC(F)(F)CC2)n1
- EC50 (cells): 465 nM

Compound: C[C@H]1CN(c2cccc(NC(=O)c3ccc(NS(=O)(=O)CCO)cc3N3CCC4(CC3)CC4)n2)CCO1
- IC50 [4]: 62 nM

Compound: Cc1cc(NC(=O)c2ccc(NS(=O)(=O)CCO)cc2C2=CCC3(CC2)CC3)nc(N2CCC(F)(F)CC2)n1
- EC50 (cells): 70.8 nM
- Cmax [5]: 158 ng/mL
- half-life [6]: 4.2 h
- IC50 [7]: > 30000 nM
- AUC(0-t) [8]: 1610 ng·h/mL
- bioavailability [9]: 69.5%

Compound: O=C(Nc1cccc(N2CCC(F)(F)CC2)c1)c1ccc(NS(=O)(=O)CCO)cc1C1=CCC2(CC1)CC2
- EC50 (cells): 337 nM
- IC50 [10]: Not Active

Compound: O=C(Nc1ccnc(N2CCC(F)(F)CC2)c1)c1ccc(NS(=O)(=O)CCO)cc1C1=CCC2(CC1)CC2
- EC50 (cells): 1630 nM

Compound: Cc1cc(NC(=O)c2ccc(NS(=O)(=O)CCO)cc2NC2CCCCC2)nc(N2CCC(F)(F)CC2)n1
- EC50 (cells): > 10000 nM

Compound: Cc1cc(NC(=O)c2ccc(NS(=O)(=O)CCO)cc2C2=CCC3(CC2)CC3)nc(N2CC3CC3C2)n1 (configuration not stated)
- EC50 (cells): 743 nM

Compound: Cc1cc(NC(=O)c2ccc(NS(=O)(=O)CCO)cc2-c2cnn(C)c2)nc(N2CCC(F)(F)CC2)n1
- EC50 (cells): > 10000 nM

Compound: O=C(Nc1cncc(N2CCC(F)(F)CC2)n1)c1ccc(NS(=O)(=O)CCO)cc1C1=CCC2(CC1)CC2
- EC50 (cells): 16.5 nM
- Cmax [5]: 140 ng/mL
- half-life [6]: 1.2 h
- AUC(0-t) [8]: 322 ng·h/mL
- bioavailability [9]: 22.9%

Compound: Cc1cc(NC(=O)c2ccc(NS(=O)(=O)[C@H](C)CO)cc2N2CCC3(CC2)CC3)nc(N2CCC(F)(F)CC2)n1
- IC50 [4]: 71 nM

Compound: O=C(Nc1ccnc(N2CCC(F)(F)CC2)c1F)c1ccc(NS(=O)(=O)CCO)cc1C1=CCC2(CC1)CC2
- EC50 (cells): 206 nM

Compound: Cc1cc(NC(=O)c2ccc(NS(=O)(=O)CCO)cc2C2=CCC3(CC2)CC3)nc(N2CCCC2)n1
- EC50 (cells): 577 nM

Compound: Cc1cc(NC(=O)c2ccc(NS(=O)(=O)CCO)cc2C2=CCC3(CC2)CC3)cc(N2CCC(F)(F)CC2)c1
- EC50 (cells): 308 nM
- IC50 [10]: Not Active

Compound: O=C(Nc1ccc(F)c(N2CCC(F)(F)CC2)n1)c1ccc(NS(=O)(=O)CCO)cc1C1=CCC2(CC1)CC2
- EC50 (cells): 40.5 nM
- Cmax [5]: 424 ng/mL
- half-life [6]: 4.7 h
- AUC(0-t) [8]: 3400 ng·h/mL
- bioavailability [9]: 67.9%

Compound: Cc1cc(NC(=O)c2ccc(NS(=O)(=O)CCO)cc2C2CCC3(CC2)CC3)nc(N2CCC(F)(F)CC2)n1
- EC50 (cells): 1360 nM

Compound: Cc1cc(NC(=O)c2ccc(NS(=O)(=O)CCO)cc2C2=CCC3(CC2)CC3)nc(N2CC(F)(F)C2)n1
- EC50 (cells): 138 nM

Compound: O=C(Nc1cccc(N2CCC(F)(F)CC2)n1)c1ccc(NS(=O)(=O)CCO)cc1C1=CCC2(CC1)CC2
- EC50 (cells): 18.2 nM
- Cmax [5]: 285 ng/mL
- half-life [6]: 2.2 h
- AUC(0-t) [8]: 1340 ng·h/mL
- bioavailability [9]: 40.4%
